# Source: patent US9745328B2, “Flap modulators” (JANSSEN PHARMACEUTICA NV, priority 2013, dated 2017)
# Target: human FLAP (Homo sapiens (Human), UniProt P20292)
# Experiment: FLAP binding assay (HTRF format)
# Settings: Table 6 (additional runs), human FLAP wild type
# Experimental: The ability of the compounds of the present invention to treat a FLAP-mediated disease and/or disorder, or associated symptoms or complications thereof, was determined using the following procedures. Binding assay data represent the average value obtained from two different assay plates, with samples run in duplicate on each plate. Human whole blood assay data represent a single replicate on an assay plate using whole blood from at least one healthy donor.
# Data are expressed as a HTRF ratio.
# Sequence of human FLAP (P20292 whole entry): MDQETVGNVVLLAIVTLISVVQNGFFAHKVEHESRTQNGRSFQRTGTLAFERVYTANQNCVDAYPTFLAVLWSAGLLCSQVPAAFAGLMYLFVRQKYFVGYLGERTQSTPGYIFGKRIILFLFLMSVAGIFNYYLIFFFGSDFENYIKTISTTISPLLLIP
row,SMILES,Ki
1,"Nc1cnc(-c2ccc(-c3ccccc3S(=O)(=O)N3CCNC(=O)C3)cc2F)cn1 [Example 66, 4-{1,4′-(5-Aminopyrazin-2-yl)-3′-fluorobiphenyl-2-ylisulfonyl}piperazin-2-one]",26.6 nM
2,"Nc1cnc(-c2ccc(-c3ccccc3S(=O)(=O)N3CCC(CCO)CC3)cc2F)cn1 [Example 69, 2-(1-{[4′-(5-Aminopyrazin-2-yl)-3′-fluorobiphenyl-2-yl]sulfonyl}piperidin-4-yl)ethanol]",0.9 nM
3,"CNC1CCN(S(=O)(=O)c2ccccc2-c2ccc(-c3cnc(N)cn3)c(F)c2)CC1 [Example 72, 5-{3-Fluoro-2′-{[4-(methylamino)piperidin-1-yl]sulfonyl}biphenyl-4-yl)pyrazin.-2-amine]",120 nM
4,"CC(=O)NC1CCN(S(=O)(=O)c2ccccc2-c2ccc(-c3cnc(N)cn3)c(F)c2)CC1 [Example 75, N-(1-{[4′-(5-Aminopyrazin-2′yl)-3′-fluorobiphenyl-2-yl]sulfonyl}piperidin-4-yl)acetamide]",10.7 nM
5,"Nc1cnc(-c2ccc(-c3ccccc3S(=O)(=O)N[C@@H](CO)[C@@H](O)c3ccccc3)cc2F)cn1 [Example 78, 4′-(5-Aminopyrazin-2-yl)-3′-fluoro-N-[(1S,2S)-2-hydroxy-1-(hydroxymethyl)-2-phenylethyl]biphenyl-2-sulfonamide]",0.7 nM
6,"CC(C)C[C@@H](CO)NS(=O)(=O)c1ccccc1-c1ccc(-c2cnc(N)cn2)c(F)c1 [Example 79, 4′-(5-Aminopyrazin-2-yl)-3′-fluoro-N-[(1S)-1-(hydroxymethyl)-3-methylbutyl]biphenyl-2-sulfonamide]",5.3 nM
7,"Nc1cnc(-c2ccc(-c3ccccc3S(=O)(=O)NCCCO)cc2F)cn1 [Example 80, 4′-(5-Aminopyrazin-2-yl)-3′-fluoro-N-(3-hydroxypropyl)biphenyl-2-sulfonamide]",3.9 nM
8,"Nc1cnc(-c2ccc(-c3ccccc3S(=O)(=O)N[C@H](CO)c3ccccc3)cc2F)cn1 [Example 81, 4′-(5-Aminopyrazin-2-yl)-3′-fluoro-N-[(1S)-2-hydroxy-1-phenylethyl]biphenyl-2-sulfonamide]",6.4 nM
9,"Nc1cnc(-c2ccc(-c3ccccc3S(=O)(=O)N[C@@H](CO)c3ccccc3)cc2F)cn1 [Example 82, 4′-(5-Aminopyrazin-2-yl)-3′-fluoro-N-[(1R)-2-hydroxy-1-phenylethyl]biphenyl-2-sulfonamide]",0.7 nM
10,"Nc1cnc(-c2ccc(-c3ccccc3S(=O)(=O)N[C@@H]3CCCC[C@H]3O)cc2F)cn1 [Example 85, 4′-(5-Aminopyrazin-2-yl)-3′-fluoro-N-[(1R,2R)-2-hydroxycyclohexyl]biphenyl-2-sulfonamide]",1.9 nM
11,"CC[C@H](CO)NS(=O)(=O)c1ccccc1-c1ccc(-c2cnc(N)cn2)c(F)c1 [Example 86, 4′-(5-Aminopyrazin-2-yl)-3′-fluoro-N-[(1R)-1-(hydroxymethyl)propyl]biphenyl-2-sulfonamide]",2.6 nM
12,"Nc1cnc(-c2ccc(-c3ccccc3S(=O)(=O)N[C@@H]3CCCC[C@@H]3O)cc2F)cn1 [Example 87, 4′-(5-Aminopyrazin-2-yl)-3′-fluoro-N-[(1R,2S)-2-hydroxycyclohexyl]biphenyl-2-sulfonamide]",3.2 nM
13,"Nc1cnc(-c2ccc(-c3ccccc3S(=O)(=O)NCCO)cc2F)cn1 [Example 88, 4′-(5-Aminopyrazin-2-yl)-3′-fluoro-N-(2-hydroxyethyl)biphenyl-2-sulfonamide]",6.2 nM
14,"Nc1cnc(-c2ccc(-c3ccccc3S(=O)(=O)NC3CC3)cc2F)cn1 [Example 89, 4′-(5-Aminopyrazin-2-yl)-N-cyclopropyl-3′-fluoroblphenyl-2-sulfonamide]",4.9 nM
15,"Nc1cnc(-c2ccc(-c3ccccc3S(=O)(=O)NCC3CC3)cc2F)cn1 [Example 90, 4′-(5-Aminopyrazin-2-yl)-N-(cyclopropylmethyl)-3′-fluorobiphenyl-2-sulfonamide]",0.9 nM
16,"CS(=O)(=O)NS(=O)(=O)c1ccccc1-c1ccc(-c2cnc(N)cn2)c(F)c1 [Example 96, 4′-(5-Aminopyrazin-2-yl)-3′-fluoro-N-(methylsulfonyl)biphenyl-2-sulfonamide]",354 nM
17,"C[C@@H](O)CNS(=O)(=O)c1ccccc1-c1ccc(-c2cnc(N)cn2)c(F)c1 [Example 97, (R)-4′-(5-aminopyrazin-2-yl)-3′-fluoro-N-(2-hydroxypropyl)-[1,1′-biphenyl]-2-sulfonamide]",6.6 nM
18,"C[C@H](O)CNS(=O)(=O)c1ccccc1-c1ccc(-c2cnc(N)cn2)c(F)c1 [Example 98, (S)-4′-(5-aminopyrazin-2-yl)-3′-fluoro-N-(2-hydroxypropyl)-[1,1′-biphenyl]-2-sulfonamide]",6.1 nM
19,"Nc1cnc(-c2ccc(-c3ccccc3S(=O)(=O)NCC3(O)CCCCC3)cc2F)cn1 [Example 99, 4′-(5-Aminopyrazin-2-yl)-3′-fluoro-N-[(1-hydroxycyclohexyl)methyl]biphenyl-2-sulfonamide]",1.6 nM
20,"CC(C)(CO)NS(=O)(=O)c1ccccc1-c1ccc(-c2cnc(N)cn2)c(F)c1 [Example 100, 4′-(5-Aminopyrazin-2-yl)-3′-fluoro-N-(2-hydroxy-1,1-dimethylethyl)biphenyl-2-sulfonamide]",0.8 nM
21,"CC(C)(O)CNS(=O)(=O)c1ccccc1-c1ccc(-c2cnc(N)cn2)c(F)c1 [Example 101, 4′-(5-Aminopyrazin-2-yl)-3′-fluoro-N-(2-hydroxy-2-methylpropyl)biphenyl-2-sulfonamide]",1.8 nM
22,"CC(C)(CCO)NS(=O)(=O)c1ccccc1-c1ccc(-c2cnc(N)cn2)c(F)c1 [Example 102, 4′-(5-Aminopyrazin-2-yl)-3′-fluoro-N-(3-hydroxy-1,1-dimethylpropyl)biphenyl-2-sulfonamide]",0.4 nM
23,"CC(C)(CO)CNS(=O)(=O)c1ccccc1-c1ccc(-c2cnc(N)cn2)c(F)c1 [Example 103, 4′-(5-Aminopyrazin-2-yl)-3′-fluoro-N-(3-hydroxy-2,2-dimethylpropyl)biphenyl-2-sulfonamide]",0.3 nM
24,"Nc1cnc(-c2ccc(-c3ccccc3S(=O)(=O)N[C@H]3CCCNC3=O)cc2F)cn1 [Example 108, (S)-4′-(5-aminopyrazin-2-yl)-3′-fluoro-N-(2-oxopiperidin-3-yl)-[1,1′-biphenyl]-2-sulfonamide]",9.5 nM
25,CC(C)[C@H](CO)NS(=O)(=O)c1ccccc1-c1ccc(-c2cnc(N)cn2)c(F)c1 [Example 109],1.5 nM
26,"Nc1cnc(-c2ccc(-c3ccccc3S(=O)(=O)N[C@H]3CC[C@H](O)CC3)cc2F)cn1 [Example 110, trans 4′-(5-Aminopyrazin-2-yl)-3′-fluoro-N-(4-hydroxycyclohexyl)biphenyl-2-sulfonamide]",2.6 nM
27,"Nc1cnc(-c2ccc(-c3ccccc3S(=O)(=O)N[C@H](CO)Cc3ccccc3)cc2F)cn1 [Example 116, (3),4-(5-aminopyrazin-2-yl)-3′-fluoro-N-(1-hydroxy-3-phenylpropan-2-yl)-[1,1′-biphenyl]-2-sulfonamide]",0.7 nM
28,"C[C@@H]([C@@H](O)c1ccccc1)N(C)S(=O)(=O)c1ccccc1-c1ccc(-c2cnc(N)cn2)c(F)c1 [Example 118, 4′-(5-aminopyrazin-2-yl)-3′-fluoro-N-((1S,2S)-1-hydroxy-1-phenylpropan-2-yl)-N-methyl-[1,1′-biphenyl)-2-sulfonamide]",0.4 nM

# Same assay, conditions: human FLAP wild type, a calculated value of 0.000 indicates Ki less than 1 nM
row,SMILES,Ki
1,"CC(C)(CCO)NS(=O)(=O)c1ccccc1-c1ccc(-c2cnc(N)cn2)c(F)c1 [Example 102, 4′-(5-Aminopyrazin-2-yl)-3′-fluoro-N-(3-hydroxy-1,1-dimethylpropyl)biphenyl-2-sulfonamide]",< 1 nM
2,"CC(C)(CO)CNS(=O)(=O)c1ccccc1-c1ccc(-c2cnc(N)cn2)c(F)c1 [Example 103, 4′-(5-Aminopyrazin-2-yl)-3′-fluoro-N-(3-hydroxy-2,2-dimethylpropyl)biphenyl-2-sulfonamide]",< 1 nM
3,"C[C@@H]([C@@H](O)c1ccccc1)N(C)S(=O)(=O)c1ccccc1-c1ccc(-c2cnc(N)cn2)c(F)c1 [Example 118, 4′-(5-aminopyrazin-2-yl)-3′-fluoro-N-((1S,2S)-1-hydroxy-1-phenylpropan-2-yl)-N-methyl-[1,1′-biphenyl)-2-sulfonamide]",< 1 nM
